Assay results: publication PMC12040169 (PLOS Biology, 2025)

experiment: in vitro; details: human, hela cells, % viability

Row | SMILES | viability at 28.5 h, 10 µM [%]
1 | O=C(CCc1ccc(=O)[nH]n1)N1CCCCC1c1nc2cc(F)ccc2[nH]1 (stereo not drawn) [CBK291107] | 105
2 | CC(=O)Nc1cnn(-c2ccc(C(=O)N3CCCCC3c3nc4ccccc4[nH]3)cc2)c1 (stereo not drawn) [CBK291109] | 83.3
3 | CC(=O)N1CCCC(c2nc(-c3ccncc3)ncc2-c2ccccc2)C1 (stereo not drawn) [CBK291110] | 82.2
4 | Cc1ccc(Nc2ncc(C(=O)NCc3ccccn3)c3ccccc23)cc1Cl [CBK291113] | 109
5 | Cc1cc(NC(=O)c2c(F)cccc2F)nc2c1c(=O)oc1ccccc12 [CBK291115] | 110
6 | O=C(Cn1c(=O)cc(O)c2ccccc21)N1CCN(c2ccccn2)CC1 [CBK291117] | 94.4
7 | CCCn1c(=O)c(C(=O)NCCN(CC)CC)c(O)c2cc(Br)ccc21 [CBK291118] | 85.7
8 | Cc1cc(NC(=O)c2ccc3c(c2)OCO3)nc2c1c(=O)oc1ccccc12 [CBK291121] | 117
9 | Cc1cc(NC(=O)c2ccc3ccccc3c2)nc2c1c(=O)oc1ccccc12 [CBK291122] | 117
10 | Cc1cc(O)cc(=O)n1Cc1cccnc1 [CBK291123] | 112
11 | Cc1cc(NC(=O)c2ccco2)nc2c1c(=O)oc1ccccc12 [CBK291124] | 110
12 | Cc1cc(NC(=O)c2ccccc2)nc2c1c(=O)oc1ccccc12 [CBK291126] | 113
13 | Cc1cc(NC(=O)Cc2ccccc2)nc2c1c(=O)oc1ccccc12 [CBK291127] | 102
14 | CCCCCn1c(=O)c(C(=O)NCc2ccc(Cl)cc2)c(O)c2ccccc21 [CBK291131] | 117
15 | Cc1cc(NC(=O)C(C)(C)Oc2ccc(Cl)cc2)nc2c1c(=O)oc1ccccc12 [CBK291132] | 112
16 | CCCCC1CCC(C(=O)Nc2cc(C)c3c(=O)oc4ccccc4c3n2)CC1 (stereo not drawn) [CBK291136] | 101
17 | CC(C)N1CNc2c(c(=O)nc(O)n2Cc2ccccc2)C1 [CBK291139] | 92.5
18 | O=c1[nH]c(=O)n(Cc2ccccc2)c2nc[nH]c12 [CBK291140] | 108
19 | Cc1ccccc1-c1csc2c(=O)[nH]c(N3CCC4(CC3)OCCO4)nc12 [CBK291141] | 96.9
20 | Cc1cccc(-c2csc3c(=O)[nH]c(N4CCC5(CC4)OCCO5)nc23)c1 [CBK291142] | 102
21 | Cc1cc(O)c(C(=O)Nc2cccc(Cl)c2)c(=O)n1Cc1ccco1 [CBK291143] | 91.2

Row | SMILES | viability at 28.5 h, 10 µM [%]
22 | O=C(O)c1cccc(N2C(=O)CC(n3cnc4ccccc43)C2=O)c1 (stereo not drawn) [CBK291145] | 89.8
23 | COc1ccc(C(=O)Nc2nc3ccc(S(N)(=O)=O)cc3s2)cc1 [CBK291147] | 96.9
24 | CCCCn1nc(C(=O)N2CCCCC2c2ncc(-c3cccc(F)c3)[nH]2)ccc1=O (stereo not drawn) [CBK291149] | 98.6
25 | Cc1cc(NC(=O)C(C)Oc2ccccc2)nc2c1c(=O)oc1ccccc12 (stereo not drawn) [CBK291153] | 95.8
26 | c1ccc(-c2nc(-c3ccncc3)[nH]c2-c2ccccc2)cc1 [CBK291155] | 85.3
27 | Oc1ccc(Nc2cc(-c3ccccc3)ncn2)cc1 [CBK291157] | 79.8
28 | COc1ccc(Oc2nccc(-c3ccccc3)c2C#N)cc1 [CBK291158] | 98.7
29 | O=c1c(-c2cc(O)[nH]n2)c(O)c2ccccc2n1Cc1ccccc1 [CBK291160] | 97.2
30 | Cc1cc(NC(=O)c2cccc(C(F)(F)F)c2)nc2c1c(=O)oc1ccccc12 [CBK291163] | 101
31 | O=c1c(Cl)c(O)c2ccccc2n1Cc1ccccc1 [CBK291164] | 91.2
32 | O=c1c(Cc2ccccc2)c(O)c2cccc3c2n1CCC3 [CBK291166] | 93.3
33 | COc1ccc2ncc3c(c2c1)NCCNC3=O [CBK291168] | 88.4
34 | O=C(O)c1cccc2c1C(=O)N(Cc1ccccc1F)C2 [CBK291172] | 86.8
35 | O=C(Nc1nccs1)c1c(O)n(Cc2ccccc2)c2ccccc2c1=O [CBK291173] | 96.6
36 | COc1cc(Br)cc(C2NC(=O)c3cnc(SC)nc3N2)c1O (stereo not drawn) [CBK291179] | 91.9
37 | Cc1nn(-c2ccccn2)c(N)c1C1CC(=O)N(c2ccc(C(=O)O)cc2)C1=O (stereo not drawn) [CBK291180] | 95.2
38 | O=c1c([N+](=O)[O-])c(O)c2ccccc2n1Cc1ccccc1 [CBK291182] | 94.8
39 | O=C(O)c1cccc2c1C(=O)N(Cc1ccc(F)cc1)C2 [CBK291183] | 87.3
40 | CCOc1ccc(CCNC(=O)c2cnc(Nc3ccccc3OC)c3ccccc23)cc1OCC [CBK291185] | 94.5
41 | COc1ccc(Sc2cc3n(c(=O)n2)CCc2cc(OC)c(OC)cc2-3)cc1 [CBK291186] | 81.9
42 | O=c1c(-c2ccccc2)c(O)cc(-c2ccccc2)n1Cc1ccccc1 [CBK291188] | 115

Row | SMILES | viability at 28.5 h, 10 µM [%]
43 | CCCc1nc(SC)ncc1C(=O)NCc1ccccn1 [CBK291190] | 108
44 | Cc1[nH]c(=O)c(C(=O)Nc2ccc(-n3ccc(C(N)=O)n3)cc2)cc1-c1ccccc1 [CBK291194] | 109
45 | COc1ccc(Cl)cc1C(=O)Nc1cc(C)c2c(=O)oc3ccccc3c2n1 [CBK291196] | 108
46 | Cc1ccc(Nc2ncc(C(=O)NCCCN3CCCCCC3)c3ccccc23)cc1Cl [CBK291197] | 105
47 | CCN(CC)CCNC(=O)c1c(O)c2ccccc2n(Cc2ccccc2)c1=O [CBK291199] | 113
48 | O=C(O)c1cccc2c1C(=O)N(Cc1c(F)cccc1Cl)C2 [CBK291201] | 111
49 | c1ccc(-c2nc(-c3ccncc3)sc2-c2ccccc2)cc1 [CBK291203] | 116
50 | Cc1cc(NC(=O)c2ccc(N3C(=O)CCC3=O)cc2)nc2c1c(=O)oc1ccccc12 [CBK291205] | 114
51 | O=C(Nc1cccnc1)c1c(O)n(Cc2ccccc2)c2ccccc2c1=O [CBK291206] | 110
52 | O=C(Nc1ncccc1O)c1c(O)c2ccccc2n(Cc2ccccc2)c1=O [CBK291211] | 103
53 | CCCCCn1c(=O)c(-c2nc3ccccc3c(=O)[nH]2)c(O)c2ccccc21 [CBK291215] | 110
54 | O=C(c1cc[nH]n1)N1CCCCC1c1ncc(-c2cccc(F)c2)[nH]1 (stereo not drawn) [CBK291217] | 94.6
55 | COc1cc(OC)cc(C(=O)Nc2cc(C)c3c(=O)oc4ccccc4c3n2)c1 [CBK291221] | 95.2
56 | Cc1[nH]c(=O)c(C(=O)N(C)C(C)c2ccc(Cl)cc2)cc1-c1ccc(O)cc1 (stereo not drawn) [CBK291225] | 98.8
57 | COc1cc(CN2Cc3cccc(C(=O)O)c3C2=O)cc(OC)c1OC [CBK291227] | 108
58 | Cc1nc2ncnc(N3CCc4ccccc43)c2[nH]1 [CBK291228] | 89.2
59 | Cc1cc(NC(=O)COc2ccc(Cl)cc2)nc2c1c(=O)oc1ccccc12 [CBK291230] | 92.9
60 | COc1ccc(C(=O)Nc2cc(C)c3c(=O)oc4ccccc4c3n2)c(OC)c1 [CBK291231] | 94.5
61 | CN(C)CCCn1cnc2c1c(=O)[nH]c(=O)n2Cc1ccccc1 [CBK291234] | 95.3
62 | CN(C)CCn1cnc2c1c(=O)[nH]c(=O)n2Cc1ccccc1 [CBK291235] | 96.9
63 | COc1ccc(CN2Cc3cccc(C(=O)O)c3C2=O)cc1OC [CBK291237] | 83.5
